One data set deals with UACC-257. Kind of data set: NCI anticancer screening, Melanoma UACC-257. Format: cell-based. The note with it: Homo sapiens; UACC-257, 10 μM; read-out: % Growth Inhibition (GI %). The text has this:
(§1) The compound has been processed according to standard method NCI-60 Human Tumor Cell Lines Screen for organic compound at development therapeutic program (DTP). Requests for access to this national resource can be submitted online at: […]

The next data set has as its system MCF7. Kind of data set: NCI anticancer screening, Breast Cancer MCF7. In kind it is cell-based. The note with it: Homo sapiens; MCF7, 10 μM; read-out: % Growth Inhibition (GI %).
Source text: as §1

A further data set has as its system OVCAR-3. Kind of data set: NCI anticancer screening, Ovarian Cancer OVCAR-3. In kind it is cell-based. The note with it: Homo sapiens; OVCAR-3, 10 μM; read-out: % Growth Inhibition (GI %).
Source text: as §1

A further data set concerns HCT-15. Kind of data set: NCI anticancer screening, Colon Cancer HCT-15. In kind it is cell-based. The note with it: Homo sapiens; HCT-15, 10 μM; read-out: % Growth Inhibition (GI %).
Source text: as §1

Data set [1] can be described thus: MTT cytotoxicity to normal human lung fibroblast Wi-38 cell line. The note with it: Wi-38 normal lung fibroblast cells, mean ± SEM, read-out: percentage of Wi-38 viability. In kind it is cell-based. The procedure:
Normal human lung fibroblast Wi-38 cell line was used to detect cytotoxicity of the studied compounds (Table S8). Wi-38 cell line was cultured in DMEM medium-contained 10% fetal bovine serum (FBS), seeded as 5x10^3 cells per well in 96-well cell culture plate and incubated at 37 °C in 5% CO2 incubator. After 24 h for cell attachment, serial concentrations of the synthetic compounds were incubated with Wi-38 cells for 72 h. Cell viability was assayed by MTT method (Mosmann, 1983). Twenty microliters of 5 mg/ml MTT (Sigma, USA) was added to each well and the plate was incubated at 37 °C for 3 h. Then MTT solution was removed, 100 µl DMSO was added and the absorbance of each well was measured with a microplate reader (BMG LabTech, Germany) at 570 nm.

The next data set concerns UACC-62. As to the kind of experiment: NCI anticancer screening, Melanoma UACC-62. In kind it is cell-based. As to conditions: Homo sapiens; UACC-62, 10 μM; read-out: % Growth Inhibition (GI %).
Source text: as §1

The next data set concerns A498. Kind of data set: NCI anticancer screening, Renal Cancer A498. In kind it is cell-based. The note with it: Homo sapiens; A498, 10 μM; read-out: % Growth Inhibition (GI %).
Source text: as §1

In another data set the test system is HT29. Kind of data set: NCI anticancer screening, Colon Cancer HT29. Format: cell-based. The note with it: Homo sapiens, HT-29; HT29, 10 μM; read-out: % Growth Inhibition (GI %).
Source text: as §1

Another data set deals with BT-549. Kind of data set: NCI anticancer screening, Breast Cancer BT-549. In kind it is cell-based. As to conditions: Homo sapiens; BT-549, 10 μM; read-out: % Growth Inhibition (GI %).
Source text: as §1

A further data set has as its system UO-31. As to the kind of experiment: NCI anticancer screening, Renal Cancer UO-31. In kind it is cell-based. The note with it: Homo sapiens; UO-31, 10 μM; read-out: % Growth Inhibition (GI %).
Source text: as §1

For another data set, the system named is SF-268. As to the kind of experiment: NCI anticancer screening, CNS Cancer SF-268. Format: cell-based. The note with it: Homo sapiens; SF-268, 10 μM; read-out: % Growth Inhibition (GI %).
Source text: as §1

The next data set relates to RPMI-8226. Kind of data set: NCI anticancer screening, Leukemia RPMI-8226. Format: cell-based. The note with it: Homo sapiens; RPMI-8226, 10 μM; read-out: % Growth Inhibition (GI %).
Source text: as §1

The test system of a further data set is COLO 205. As to the kind of experiment: NCI anticancer screening, Colon Cancer COLO 205. Format: cell-based. As to conditions: Homo sapiens; COLO 205, 10 μM; read-out: % Growth Inhibition (GI %).
Source text: as §1

The test system of the next data set is M14. Kind of data set: NCI anticancer screening, Melanoma M14. Format: cell-based. The note with it: Homo sapiens; M14, 10 μM; read-out: % Growth Inhibition (GI %).
Source text: as §1

The subject of another data set is OVCAR-5. As to the kind of experiment: NCI anticancer screening, Ovarian Cancer OVCAR-5. The note with it: Homo sapiens; OVCAR-5, 10 μM; read-out: % Growth Inhibition (GI %). Format: cell-based.
Source text: as §1

A further data set concerns NCI-H460. As to the kind of experiment: NCI anticancer screening, Non-Small Cell Lung Cancer NCI-H460. Format: cell-based. As to conditions: Homo sapiens; NCI-H460, 10 μM; read-out: % Growth Inhibition (GI %).
Source text: as §1

The test system of another data set is MDA-MB-435. Kind of data set: NCI anticancer screening, Melanoma MDA-MB-435. In kind it is cell-based. The note with it: Homo sapiens; MDA-MB-435, 10 μM; read-out: % Growth Inhibition (GI %).
Source text: as §1

The subject of the next data set is SK-OV-3. Kind of data set: NCI anticancer screening, Ovarian Cancer SK-OV-3. Format: cell-based. The note with it: Homo sapiens; SK-OV-3, 10 μM; read-out: % Growth Inhibition (GI %).
Source text: as §1

The next data set relates to MDA-MB-468. As to the kind of experiment: NCI anticancer screening, Breast Cancer MDA-MB-468. In kind it is cell-based. The note with it: Homo sapiens, read-out: % Growth Inhibition (GI %).
Source text: as §1

In another data set the test system is KM12. Kind of data set: NCI anticancer screening, Colon Cancer KM12. In kind it is cell-based. As to conditions: Homo sapiens; KM12, 10 μM; read-out: % Growth Inhibition (GI %).
Source text: as §1

The test system of a further data set is IGROV1. Kind of data set: NCI anticancer screening, Ovarian Cancer IGROV1. Format: cell-based. The note with it: Homo sapiens, IGROV-1; IGROV1, 10 μM; read-out: % Growth Inhibition (GI %).
Source text: as §1

For the next data set, the system named is NCI-H23. As to the kind of experiment: NCI anticancer screening, Non-Small Cell Lung Cancer NCI-H23. Format: cell-based. As to conditions: Homo sapiens; NCI-H23, 10 μM; read-out: % Growth Inhibition (GI %).
Source text: as §1

For a further data set, the system named is NCI-H226. As to the kind of experiment: NCI anticancer screening, Non-Small Cell Lung Cancer NCI-H226. Format: cell-based. As to conditions: Homo sapiens; NCI-H226, 10 μM; read-out: % Growth Inhibition (GI %).
Source text: as §1

In a further data set the test system is NF-κB. As to the kind of experiment: Real time PCR NF-κB gene expression in MDA-MB 231 cells. As to conditions: treated MDA-MB 231 cells compared to untreated cells. (Quantitative PCR measures a nucleic acid by following its amplification.)
The target in data set [2] is T1, Mdm2 (residues 1–118 T47W) (Homo sapiens, UniProt Q00987, T47W).
T1 construct: Mdm2 (residues 1–118 T47W; 500 nM)
Kind of data set: MDM2 binding by microscale thermophoresis (MST). The procedure: MST is a complementary biophysical assay to assess the binding of a small molecule to its receptor. […] Experiments were performed in 50 mM phosphate buffer at pH 7.4 containing 150 mM NaCl, 5 mM DTT, and 5% DMSO. […] Kd values and uncertainties were calculated using the MO Affinity Analysis software.

SMILES strings stand for the structures.

T1 sequence (Q00987 1-118 T47W): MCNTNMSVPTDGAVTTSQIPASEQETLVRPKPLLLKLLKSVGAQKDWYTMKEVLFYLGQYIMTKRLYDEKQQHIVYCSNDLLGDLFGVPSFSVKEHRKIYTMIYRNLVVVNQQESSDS

On to `O=C(c1nc2ccccc2[nH]1)[C@H]1[C@H](c2ccc(F)cc2)C2CSCN2[C@]12C(=O)Nc1ccccc12` (stereo partly drawn) [Compound 6f, (3S,6′R)-6'-(1H-Benzo [d]imidazole-2-carbonyl)-7'-(4-fluorophenyl)-3′,6′,7′,7a′-tetrahydro-1′H-spiro [indoline-3.5′-pyrrolo [1,2-c]thiazol]-2-one], for which the inhibition (usually the drop in the measured response relative to a control, in per cent) at 10 µM in the data set with UACC-257 is 83.9%; in the data set with MCF7, 87.4%; in the data set with OVCAR-3 it was 101%; with HCT-15 it was 93.6%; in the data set with UACC-62, 78.1%; with A498, 57.2%. Moreover, the inhibition at 10 µM in the data set with HT29 is 85.7%; with BT-549, 97.4%; with UO-31, 77%; in the data set on SF-268, 96.3%; with RPMI-8226, 87.8%; in the data set on COLO 205, 109%. Besides, the inhibition at 10 µM in the data set on M14 was determined as 94.5%; in the data set with OVCAR-5, 100%; in the data set with NCI-H460, 88.9%; in the data set with MDA-MB-435, 94.6%; in the data set on SK-OV-3, 102%; in the data set with MDA-MB-468, 94.2%. The inhibition at 10 µM was found to be 88.7% in the data set on KM12, 93.2% in the data set with IGROV1 and 98% in the data set with NCI-H23. Besides, the viability (usually a read-out of living cells in per cent, often relative to untreated cells) at 72 h, 5 µM in data set [1] was found to be 47.39 ± 0.092%.
Turning to `O=C(c1nc2ccccc2[nH]1)[C@H]1[C@H](c2ccccc2)C2CSCN2[C@]12C(=O)Nc1ccccc12` (mixture of isomers) [Compound 6a, (3S,6′R)-6'-(1H-benzo [d]imidazole-2-carbonyl)-7′-phenyl-3′,6′,7′,7a′-tetrahydro-1′H-spiro [indoline-3.5′-pyrrolo [1,2-c]thiazol]-2-one], the inhibition at 10 µM with UACC-257 stood at 97.3%; in the data set on MCF7, 98.1%; with OVCAR-3 it was 110%; with HCT-15 it was 109%; with UACC-62, 95.7%; in the data set with HT29 it was 98.8%. The inhibition at 10 µM came to 102% with BT-549; 95.3% in the data set on NCI-H226; 77.2% in the data set on UO-31; 98.1% in the data set with SF-268; 111% in the data set on RPMI-8226; 99.9% in the data set with COLO 205. The inhibition at 10 µM in the data set on M14 turned out to be 107%; in the data set on OVCAR-5, 104%; with NCI-H460 it was 106%; in the data set with MDA-MB-435 it was 103%; in the data set with SK-OV-3, 99.1%; in the data set with MDA-MB-468 it was 100%. Also, the values for the inhibition at 10 µM in the data set on KM12, in the data set with IGROV1 and with NCI-H23 were 105%, 91.4% and 104%, respectively. In addition, the viability at 72 h, 5 µM in data set [1] was above 81%. For the same molecule, the “expression level of NF-κB” value in the data set with NF-κB was “downregulating”. In data set [2], the Kd (commonly a measure of binding affinity in units of concentration) came out at 87.7 µM.
On to `COc1cc([C@@H]2C3CSCN3[C@]3(C(=O)Nc4ccccc43)[C@H]2C(=O)c2nc3ccccc3[nH]2)cc(OC)c1OC` (stereo partly drawn) [Compound 6i, (3S,6′R)-6'-(1H-Benzo [d]imidazole-2-carbonyl)-7'-(3,4,5-trimethoxyphenyl)-3′,6′,7′,7a′-tetrahydro-1′H-spiro [indoline-3.5′-pyrrolo [1,2-c]thiazol]-2-one], for which the inhibition at 10 µM in the data set on UACC-257 is 87.8%; in the data set with MCF7, 99.9%; in the data set with OVCAR-3, 109%; with HCT-15, 105%; in the data set with UACC-62 it was 87.4%; with A498, 81.7%. The inhibition at 10 µM in the data set with HT29 was 107%; with BT-549 it was 93.7%; in the data set on UO-31 it was 86.6%; with SF-268, 99.2%; with RPMI-8226, 108%; in the data set on COLO 205, 114%. Moreover, the inhibition at 10 µM stood at 107% with M14; 94.3% in the data set on OVCAR-5; 105% in the data set on NCI-H460; 101% with MDA-MB-435; 102% with SK-OV-3; 99.6% in the data set on MDA-MB-468. For the same molecule, the inhibition at 10 µM in the data set with KM12 came to 101%; with IGROV1, 95.8%; in the data set on NCI-H23, 104%. Besides, the viability at 72 h, 5 µM in data set [1] was 43.3 ± 0.917%.
`O=C(c1nc2ccccc2[nH]1)[C@H]1[C@H](c2cccs2)C2CSCN2[C@]12C(=O)Nc1ccccc12` (stereo partly drawn) [Compound 6e, (3S,6′R)-6'-(1H-Benzo [d]imidazole-2-carbonyl)-7'-(thiophen-2-yl)-3′,6′,7′,7a′-tetrahydro-1′H-spiro [indoline-3.5′-pyrrolo [1,2-c]thiazol]-2-one]: the inhibition at 10 µM in the data set on UACC-257 was determined as 93.4%; in the data set on MCF7 it was 94.5%; with OVCAR-3, 105%; with HCT-15, 100%; in the data set on UACC-62, 90.8%; in the data set with A498 it was 79.7%. Further, the inhibition at 10 µM with HT29 is 101%; with BT-549, 94.1%; with UO-31, 76%; with SF-268, 92.4%; in the data set with RPMI-8226, 101%; with COLO 205, 112%. The inhibition at 10 µM with M14 turned out to be 100%; with OVCAR-5 it was 96.2%; in the data set with NCI-H460, 101%; in the data set with MDA-MB-435, 100%; in the data set on SK-OV-3, 101%; with MDA-MB-468 it was 100%. Also, the inhibition at 10 µM in the data set on KM12 stood at 98.8%; in the data set on IGROV1, 89.7%; in the data set with NCI-H23, 103%. The viability at 72 h, 5 µM in data set [1] stood at 51.7 ± 1.28%. The Kd in [2] turned out to be 113 µM.

Values taken from article PMC11033320, “Activation of p53 signaling and regression of breast and prostate carcinoma cells by spirooxindole-benzimidazole small molecules” (Frontiers in Pharmacology, 2024).
